# Patent publication US8871753B2, “Macrocyclic compounds and their use as kinase inhibitors” (Incyte Corporation, priority 2008, dated 2014)
# Structures can show the parent of a compound that is named as a salt. Where two headings read alike, the source gives them in different places.
# What was measured:
# Type in all cases: biochemical
# [1] = biological target: T1, human JAK2 (a.a. 828-1132) (Homo sapiens, UniProt O60674); assay: In vitro JAK kinase assay (HTRF, phosphorylation of a biotinylated peptide), JAK2
# T1 construct: JAK2 (a.a. 828-1132); His tag (N); made in house; host or cells: insect cells (baculovirus)
# Method in brief: (§1)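 Kinase activity was measured as phosphorylation of a biotinylated peptide, with ATP at 90 μM for JAK1, 30 μM for JAK2 and 3 μM for JAK3. Reactions ran 1 hr at room temperature, were stopped with EDTA plus SA-APC and Eu-Py20, and were read by HTRF after 40 minutes of antibody binding.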
# [2] = biological target: T2, human JAK3 (a.a. 781-1124) (Homo sapiens, UniProt P52333); assay: In vitro JAK kinase assay (HTRF, phosphorylation of a biotinylated peptide), JAK3
# T2 construct: JAK3 (a.a. 781-1124); His tag (N); made in house; host or cells: insect cells (baculovirus)
# Method in brief: as §1
# [3] = biological target: T3, Recombinant Human Anaplastic Lymphoma Kinase (Homo sapiens, UniProt Q9UM73); assay: ALK HTRF kinase assay
# T3 construct: purchased Invitrogen, Carlsbad, Calif
# Method in brief: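 TR-FRET read-out (Eu anti-pTyr antibody + streptavidin-APC) of biotin-peptide phosphorylation by recombinant human enzyme; IC50 by sigmoidal fit with top/bottom baselines and Hill slope.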
# [4] = biological target: T4, human JAK1 (a.a. 837-1142) (Homo sapiens, UniProt P23458); assay: In vitro JAK kinase assay (HTRF, phosphorylation of a biotinylated peptide), JAK1; conditions: read-out: JAK1 IC50
# T4 construct: human JAK1 (a.a. 837-1142); His tag (N); made in house; host or cells: insect cells (baculovirus)
# Method in brief: as §1
# TYK2 = TYK2 (Homo sapiens, UniProt P29597); assay: TYK2 kinase inhibition (Table A1)
# [5] = compound at a concentration of 500 nM or 1 mM (not specified), cells shown as percentage
# [6] = method AA1 (30 μM ATP) or AA2 (1000 μM ATP), not stated per value
# [7] = method AA1 (3 μM ATP) or AA2 (1000 μM ATP), not stated per value
# [8] = compound at 500 nM or 1 mM, 90 μM ATP
# [9] = method AA1 (90 μM ATP) or AA2 (1000 μM ATP), not stated per value
# T3 sequence (Q9UM73 19-1620): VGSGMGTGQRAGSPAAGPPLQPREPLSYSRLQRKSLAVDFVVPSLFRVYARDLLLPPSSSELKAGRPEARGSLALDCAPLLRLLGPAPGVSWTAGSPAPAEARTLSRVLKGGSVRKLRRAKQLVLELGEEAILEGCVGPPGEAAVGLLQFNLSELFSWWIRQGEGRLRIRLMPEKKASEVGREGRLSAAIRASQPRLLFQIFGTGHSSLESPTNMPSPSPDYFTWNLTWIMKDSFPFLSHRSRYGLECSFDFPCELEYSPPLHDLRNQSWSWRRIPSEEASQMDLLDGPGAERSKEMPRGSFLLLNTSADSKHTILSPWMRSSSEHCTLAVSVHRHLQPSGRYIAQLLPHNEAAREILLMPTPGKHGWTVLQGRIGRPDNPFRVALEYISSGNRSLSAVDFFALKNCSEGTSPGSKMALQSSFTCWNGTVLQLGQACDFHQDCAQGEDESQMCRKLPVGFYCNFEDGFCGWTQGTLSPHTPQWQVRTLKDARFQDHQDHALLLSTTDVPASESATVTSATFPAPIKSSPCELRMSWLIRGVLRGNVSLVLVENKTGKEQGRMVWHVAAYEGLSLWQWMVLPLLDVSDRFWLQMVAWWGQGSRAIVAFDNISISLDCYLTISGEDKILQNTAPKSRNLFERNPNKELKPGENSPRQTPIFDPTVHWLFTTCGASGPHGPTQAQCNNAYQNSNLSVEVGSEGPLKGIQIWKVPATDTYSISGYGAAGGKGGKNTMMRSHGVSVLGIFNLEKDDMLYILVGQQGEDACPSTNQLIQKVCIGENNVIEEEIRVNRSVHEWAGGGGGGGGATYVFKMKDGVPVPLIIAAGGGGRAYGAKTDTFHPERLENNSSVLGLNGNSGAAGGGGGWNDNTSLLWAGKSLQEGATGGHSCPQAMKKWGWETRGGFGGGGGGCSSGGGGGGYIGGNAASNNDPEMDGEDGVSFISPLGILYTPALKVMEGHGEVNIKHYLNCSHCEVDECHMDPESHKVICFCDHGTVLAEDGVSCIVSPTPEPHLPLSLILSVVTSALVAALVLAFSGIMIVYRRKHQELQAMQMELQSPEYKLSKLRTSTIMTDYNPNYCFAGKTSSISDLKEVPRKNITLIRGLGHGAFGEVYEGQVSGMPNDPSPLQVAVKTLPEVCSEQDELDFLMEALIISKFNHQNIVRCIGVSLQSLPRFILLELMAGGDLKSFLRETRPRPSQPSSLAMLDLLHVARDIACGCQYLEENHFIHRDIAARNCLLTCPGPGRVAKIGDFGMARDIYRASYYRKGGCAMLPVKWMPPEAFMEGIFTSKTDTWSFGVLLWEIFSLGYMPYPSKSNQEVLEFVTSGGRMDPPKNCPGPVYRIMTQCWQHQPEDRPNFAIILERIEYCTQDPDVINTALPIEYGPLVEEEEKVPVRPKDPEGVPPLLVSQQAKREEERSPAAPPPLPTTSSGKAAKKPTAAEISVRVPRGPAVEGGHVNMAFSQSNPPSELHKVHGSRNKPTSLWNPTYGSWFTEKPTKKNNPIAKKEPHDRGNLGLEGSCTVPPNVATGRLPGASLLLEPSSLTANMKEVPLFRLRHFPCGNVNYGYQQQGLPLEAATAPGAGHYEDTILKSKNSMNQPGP
# T2 sequence (P52333 781-1124): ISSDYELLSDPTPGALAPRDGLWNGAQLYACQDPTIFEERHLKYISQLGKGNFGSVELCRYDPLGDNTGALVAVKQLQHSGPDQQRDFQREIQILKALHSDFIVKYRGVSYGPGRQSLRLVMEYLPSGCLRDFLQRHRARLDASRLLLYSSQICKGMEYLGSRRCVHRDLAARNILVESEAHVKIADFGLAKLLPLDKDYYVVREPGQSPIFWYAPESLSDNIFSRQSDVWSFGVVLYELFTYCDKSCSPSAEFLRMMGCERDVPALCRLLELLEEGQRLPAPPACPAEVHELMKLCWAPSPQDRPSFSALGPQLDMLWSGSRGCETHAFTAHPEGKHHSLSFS
# T4 sequence (P23458 849-1154): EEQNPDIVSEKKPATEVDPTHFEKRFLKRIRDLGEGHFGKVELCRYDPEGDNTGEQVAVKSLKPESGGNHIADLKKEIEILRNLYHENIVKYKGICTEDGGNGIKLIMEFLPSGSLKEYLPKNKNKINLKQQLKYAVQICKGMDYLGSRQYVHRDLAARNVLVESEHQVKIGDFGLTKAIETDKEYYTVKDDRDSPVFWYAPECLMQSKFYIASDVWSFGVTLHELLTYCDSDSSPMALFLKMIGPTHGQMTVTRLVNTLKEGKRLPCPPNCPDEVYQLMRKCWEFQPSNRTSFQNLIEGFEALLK
# T1 sequence (O60674 828-1132): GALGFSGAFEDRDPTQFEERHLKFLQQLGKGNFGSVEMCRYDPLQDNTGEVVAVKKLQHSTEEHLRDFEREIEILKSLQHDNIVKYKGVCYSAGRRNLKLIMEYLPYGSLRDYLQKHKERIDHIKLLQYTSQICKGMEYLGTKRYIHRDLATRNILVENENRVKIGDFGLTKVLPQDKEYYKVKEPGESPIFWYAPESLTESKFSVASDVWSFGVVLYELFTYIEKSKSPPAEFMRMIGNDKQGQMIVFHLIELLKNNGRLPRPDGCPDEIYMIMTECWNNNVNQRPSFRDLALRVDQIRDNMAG
# Sequence of TYK2 (P29597 whole entry): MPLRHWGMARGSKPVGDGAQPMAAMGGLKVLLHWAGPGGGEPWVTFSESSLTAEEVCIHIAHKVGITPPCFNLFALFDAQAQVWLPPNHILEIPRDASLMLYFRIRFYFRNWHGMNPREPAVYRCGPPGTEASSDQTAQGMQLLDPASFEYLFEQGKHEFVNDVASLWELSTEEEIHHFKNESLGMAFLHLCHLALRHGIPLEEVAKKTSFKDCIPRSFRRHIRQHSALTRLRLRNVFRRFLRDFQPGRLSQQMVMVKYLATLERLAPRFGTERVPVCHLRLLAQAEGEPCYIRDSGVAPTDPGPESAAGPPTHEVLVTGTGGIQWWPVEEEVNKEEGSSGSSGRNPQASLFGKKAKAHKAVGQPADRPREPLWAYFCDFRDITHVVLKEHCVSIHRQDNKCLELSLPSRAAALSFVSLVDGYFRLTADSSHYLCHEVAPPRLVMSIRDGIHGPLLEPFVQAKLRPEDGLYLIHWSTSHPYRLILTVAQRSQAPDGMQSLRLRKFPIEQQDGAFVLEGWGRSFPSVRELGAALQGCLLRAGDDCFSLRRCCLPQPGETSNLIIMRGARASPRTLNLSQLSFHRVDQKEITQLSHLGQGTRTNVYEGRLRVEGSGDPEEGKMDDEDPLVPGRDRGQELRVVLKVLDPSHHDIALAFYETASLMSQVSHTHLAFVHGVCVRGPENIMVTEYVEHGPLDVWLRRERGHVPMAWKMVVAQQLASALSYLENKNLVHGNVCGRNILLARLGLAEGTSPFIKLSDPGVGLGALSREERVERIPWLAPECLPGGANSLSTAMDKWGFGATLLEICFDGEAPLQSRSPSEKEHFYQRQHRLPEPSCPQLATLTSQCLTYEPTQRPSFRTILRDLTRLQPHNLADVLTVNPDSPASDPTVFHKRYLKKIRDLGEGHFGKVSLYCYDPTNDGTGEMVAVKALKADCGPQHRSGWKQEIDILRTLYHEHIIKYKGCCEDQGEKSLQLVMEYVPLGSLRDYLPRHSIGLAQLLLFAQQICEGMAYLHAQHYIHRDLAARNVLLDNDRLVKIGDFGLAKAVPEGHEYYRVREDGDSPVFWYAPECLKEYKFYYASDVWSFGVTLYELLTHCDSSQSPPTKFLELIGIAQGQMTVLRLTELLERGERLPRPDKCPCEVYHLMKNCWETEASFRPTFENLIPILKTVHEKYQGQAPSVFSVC
Compound,IC50 ([1]; Table B1),IC50 ([2]; Table B1),IC50 ([4]; Table B1),IC50 (TYK2; Table B1),"IC50 [1, 6]","IC50 [2, 7]","ALK % of inhibition at a concentration of 500 nM or 1 mM [3, 8]","IC50 [4, 9]",IC50 (TYK2),other results
"Cc1cc(C(=O)Nc2cc3cc(c2)OCCSc2cccc(c2)Nc2nc(ncc2Cl)N3)no1 [Example D58, N-[6-Chloro-17-oxa-14-thia-2,4,8,24-tetraazatetracyclo[16.3.1.1(3,7).1(9,13)]tetracosa-1(22),3(24),4,6,9(23),10,12,18,20-nonaen-20-yl]-5-methylisoxazole-3-carboxamide trifluoroacetate]",,,,,,,,,,"IC50 ([1]; Table D1): 0.0013 µM; IC50 ([2]; Table D1): 0.021 µM; IC50 ([3]; Table D1, 90 μM ATP): 0.49 µM; IC50 ([4]; Table D1): 0.0065 µM; IC50 (TYK2; Table D1): 0.0025 µM"
"O=C(Nc1cccc(N2CCOCC2)n1)Nc1ccc2cc1CCc1cccc(c1)Nc1ncc(Cl)c(n1)N2 [Example B133, N-[6-Chloro-2,4,8,22-tetraazatetracyclo[14.3.1.1(3,7).1(9,13)]docosa-1(20), 3(22),4,6,9(21),10,12,16,18-nonaen-12-yl]-N′-(6-morpholin-4-ylpyridin-2-yl)urea bis(trifluoroacetate)]",0.085 µM,0.376 µM,0.044 µM,0.288 µM,,,,,,"ALK % of inhibition at a concentration of 500 nM or 1 mM [3, 5]: 2.5%"
"Cc1cc(C(=O)N2CCN(CC(=O)Nc3ccc4cc3CCc3cccc(c3)Nc3ncc(Cl)c(n3)N4)CC2)no1 [Example A123, N-[6-Chloro-2,4,8,22-tetraazatetracyclo[14.3.1.1(3,7).1(9,13)]docosa-1(20),3(22),4,6,9(21),10,12,16,18-nonaen-12-yl]-2-{4-[(5-methylisoxazol-3-yl)carbonyl]piperazin-1-yl}acetamide bis(trifluoroacetate)]",,,,,0.0096 µM,0.068 µM,26%,0.0072 µM,0.0083 µM,
"O=C(CC1CCN(C(=O)c2nccs2)CC1)Nc1ccc2cc1CCc1cncc(c1)Nc1ncc(Cl)c(n1)N2 [Example A133, N-[6-Chloro-2,4,8,18,22-pentaazatetracyclo[14.3.1.1(3,7).1(9,13)]docosa-1(20),3(22),4,6,9(21),10,12,16,18-nonaen-12-yl]-2-[1-(1,3-thiazol-2-ylcarbonyl)piperidin-4-yl]acetamide bis(trifluoroacetate)]",,,,,0.011 µM,0.073 µM,32%,0.0021 µM,0.0055 µM,
"O=C(Nc1ccc2cc1CCc1cncc(c1)Nc1ncc(Cl)c(n1)N2)N1CCN2CCCC2C1 (centres unmarked) [Example B315, N-[6-Chloro-2,4,8,18,22-pentaazatetracyclo[14.3.1.1(3,7).1(9,13)]docosa-1(20),3(22),4,6,9(21),10,12,16,18-nonaen-12-yl]hexahydropyrrolo[1,2-a]pyrazine-2(1H)-carboxamide tris(trifluoroacetate)]",> 0.4 µM,> 0.4 µM,0.047 µM,0.235 µM,,,,,,ALK % of inhibition at a concentration of 500 nM or 1 mM ([3]; percentage inhibition of the example compound at a concentration of 500 nM or 1 mM (not specified which)): 50%
"CC(C)(C)C(=O)N1CCC(CC(=O)Nc2ccc3cc2CCc2cccc(c2)Nc2ncc(Cl)c(n2)N3)CC1 [Example A88, N-[6-Chloro-2,4,8,22-tetraazatetracyclo[14.3.1.1(3,7).1(9,13)]docosa-1(20),3(22),4,6,9(21),10,12,16,18-nonaen-12-yl]-2-[1-(2,2-dimethylpropanoyl)piperidin-4-yl]acetamide trifluoroacetate]",,,,,0.024 µM,0.086 µM,22%,0.014 µM,0.047 µM,
"CC(C)c1ccccc1NC(=O)Nc1ccc2cc1CCc1cccc(c1)Nc1ncc(Cl)c(n1)N2 [Example B104, N-[6-Chloro-2,4,8,22-tetraazatetracyclo[14.3.1.1(3,7).1(9,13)]docosa-1(20), 3(22),4,6,9(21),10,12,16,18-nonaen-12-yl]-N′-(2-isopropylphenyl)urea trifluoroacetate]",0.011 µM,0.081 µM,0.0049 µM,0.026 µM,,,,,,"ALK % of inhibition at a concentration of 500 nM or 1 mM [3, 5]: 55%"
